One test concerns HEK293. Briefly: cells. As to conditions: Homo sapiens, ATCC CRL1573, HEK293; ASSAY_TEST Inhibition of Cell Viability; detection method Resazurin; Fluorescence (ex560/em590); MEDIA DMEM with 10% FBS; plate type 384well; TC; CORNING #3712; time 18 hr; read-out: CC50. The class given is functional, Homo sapiens, ATCC CRL1573.
Test [1] has as its system Pseudomonas aeruginosa. Briefly: Antibacterial activity against Pseudomonas aeruginosa PAO397 [PAO1 d(mexAB-oprM) d(mexCD-oprJ) d(mexEF-oprN) d(mexJKL) d(mexXY) d(opmH)] (CO-ADD:GN_211); MIC in CAMBH media using NBS plates, by OD(600). It counts as functional. To be noted: ASSAY_TEST Inhibition of Bacterial Growth, detection method Absorption (OD600), MEDIA CAMHB, plate type 384well, CORNING #3640, time 18 hr.

The subject of another test is Staphylococcus aureus. Description: microbe, parasite or virus in culture. To be noted: ATCC 43300, 18 h, ASSAY_TEST Inhibition of Bacterial Growth, detection method Absorption (OD600), MEDIA CAMHB, plate type 384well, NBS, CORNING #3640.
For the next test, the system named is Escherichia coli. Description: microbe, parasite or virus in culture. As to conditions: ATCC 25922, 18 h, ASSAY_TEST Inhibition of Bacterial Growth, detection method Absorption (OD600), MEDIA CAMHB, plate type 384well, NBS, CORNING #3640.
The subject of another test is Klebsiella pneumoniae. Description: microbe, parasite or virus in culture. As to conditions: ATCC 700603, 18 h, ASSAY_TEST Inhibition of Bacterial Growth, detection method Absorption (OD600), MEDIA CAMHB, plate type 384well, NBS, CORNING #3640.
In test [2] the test system is Pseudomonas aeruginosa. Description: microbe, parasite or virus in culture. To be noted: ATCC 27853, 18 h, ASSAY_TEST Inhibition of Bacterial Growth, detection method Absorption (OD600), MEDIA CAMHB, plate type 384well, NBS, CORNING #3640.
Description: Antibacterial activity against Pseudomonas aeruginosa ATCC 27853 (CO-ADD:GN_042); MIC in CAMBH media using NBS plates, by OD(600)
For another test, the system named is Acinetobacter baumannii. Briefly: microbe, parasite or virus in culture. As to conditions: ATCC 19606, 18 h, ASSAY_TEST Inhibition of Bacterial Growth, detection method Absorption (OD600), MEDIA CAMHB, plate type 384well, NBS, CORNING #3640.
The subject of the next test is Candida albicans. Description: microbe, parasite or virus in culture. As to conditions: ATCC 90028, ASSAY_TEST Inhibition of Fungal Growth, detection method Absorption (OD530), plate type 384well, NBS, CORNING #3640.

Results on 17 compounds are retold here after ChEMBL document CHEMBL4513161, “CO-ADD screening of MMV (CH) - Pandemic Response Box” (2021).

SMILES strings stand for the structures.

Description for Acinetobacter baumannii: Antibacterial activity against Acinetobacter baumannii ATCC 19606 (CO-ADD:GN_034); MIC in CAMBH media using NBS plates, by OD600
Description for Candida albicans: Antifungal activity against Candida albicans ATCC 90028 (CO-ADD:FG_001); MIC in YNB media using NBS plates, by OD630
Description for Cryptococcus neoformans: Antifungal activity against Cryptococcus neoformans H99 ATCC 208821 (CO-ADD:FG_002); MIC in YNB media using NBS plates, by Resazurin OD(600-570)
Description for Escherichia coli: Antibacterial activity against Escherichia coli ATCC 25922 (CO-ADD:GN_001); MIC in CAMBH media using NBS plates, by OD(600)
Description for Klebsiella pneumoniae: Antibacterial activity against Klebsiella pneumoniae MDR ATCC 70063 (CO-ADD:GN_003); MIC in CAMBH media using NBS plates, by OD(600)
Description for Staphylococcus aureus: Antibacterial activity against Staphylococcus aureus MRSA ATCC 43300 (CO-ADD:GP_020); MIC in CAMBH media, using NBS plates, by OD(600)

In the case of `CC#C[C@]1(O)CC[C@H]2[C@@H]3CCC4=CC(=O)CCC4=C3[C@@H](c3ccc(N(C)C)cc3)C[C@@]21C` [MIFEPRISTONE], in the test with HEK293, the CC50 was more than 20 µM. Moreover, the MIC against Pseudomonas aeruginosa [1], in the test on Cryptococcus neoformans, against Staphylococcus aureus, with Escherichia coli, against Klebsiella pneumoniae and against Pseudomonas aeruginosa [2] was more than 20 µM throughout. Besides, the MIC in the test with Acinetobacter baumannii and against Candida albicans was more than 20 µM each time.

Consider `Nc1nc(-c2ccccc2)nc2c1ncn2[C@@H]1O[C@H](COS(=O)(=O)NC(=O)c2ccccc2O)[C@@H](O)[C@H]1O`, for which, in the test on HEK293, the CC50 was more than 20 µM. In addition, the MIC against Pseudomonas aeruginosa [1], against Cryptococcus neoformans, against Staphylococcus aureus, against Escherichia coli, against Klebsiella pneumoniae and with Pseudomonas aeruginosa [2] was more than 20 µM in each case. The MIC with Acinetobacter baumannii and with Candida albicans was more than 20 µM in each case.

As to `O=C(Nc1ccc(F)cc1)c1nn(-c2ccccc2)c(=O)cc1Cl`, in the test on HEK293, the CC50 was determined as 8.2 µM. The MIC in the test on Pseudomonas aeruginosa [1], against Cryptococcus neoformans, against Staphylococcus aureus, in the test with Escherichia coli, with Klebsiella pneumoniae and against Pseudomonas aeruginosa [2] was more than 20 µM in each case. For the same compound, the MIC with Acinetobacter baumannii and in the test with Candida albicans was more than 20 µM in each case.

Regarding `CCCCN1C[C@H](O)[C@@H](O)[C@H](O)[C@H]1CO`, the CC50 with HEK293 is more than 20 µM. Also, the MIC in the test with Pseudomonas aeruginosa [1], in the test on Cryptococcus neoformans, in the test with Staphylococcus aureus, against Escherichia coli, in the test on Klebsiella pneumoniae and against Pseudomonas aeruginosa [2] was more than 20 µM throughout. Further, the MIC in the test with Acinetobacter baumannii and in the test on Candida albicans was more than 20 µM throughout.

Regarding `COc1cc(C(C)(C)CCCC(C)C)cc(OC)c1OC`, the CC50 in the test with HEK293 is more than 20 µM. Also, the MIC with Pseudomonas aeruginosa [1], in the test with Cryptococcus neoformans, in the test on Staphylococcus aureus, in the test with Escherichia coli, against Klebsiella pneumoniae and against Pseudomonas aeruginosa [2] was more than 20 µM in each case. Also, the MIC against Acinetobacter baumannii and in the test with Candida albicans was more than 20 µM throughout.

Turning to `FC(F)(F)c1cc(C(F)(F)F)c2ccc3nc(-c4nnco4)cn3c2n1`, the CC50 in the test with HEK293 is more than 20 µM. Moreover, the MIC in the test with Pseudomonas aeruginosa [1], with Cryptococcus neoformans, with Staphylococcus aureus, in the test with Escherichia coli, against Klebsiella pneumoniae and against Pseudomonas aeruginosa [2] was more than 20 µM each time. Moreover, the MIC with Acinetobacter baumannii and against Candida albicans was more than 20 µM each time.

`Fc1ccc2c(/C=C/c3cccnc3)c[nH]c2c1`: the CC50 with HEK293 is more than 20 µM. In addition, the MIC in the test with Pseudomonas aeruginosa [1], against Cryptococcus neoformans, in the test with Staphylococcus aureus, against Escherichia coli, against Klebsiella pneumoniae and against Pseudomonas aeruginosa [2] was more than 20 µM each time. For the same compound, the MIC with Acinetobacter baumannii and against Candida albicans was more than 20 µM in each case.

On to `CC(C)N(c1cc(-c2ccccc2)sc1C(=O)O)C(=O)[C@H]1CC[C@H](C)CC1`, for which the CC50 in the test with HEK293 is more than 20 µM. Besides, the MIC in the test on Pseudomonas aeruginosa [1], in the test on Cryptococcus neoformans, against Staphylococcus aureus, with Escherichia coli, against Klebsiella pneumoniae and against Pseudomonas aeruginosa [2] was more than 20 µM each time. Moreover, the MIC in the test with Acinetobacter baumannii and with Candida albicans was more than 20 µM throughout.

`C[Si]1(C)CCN(Cc2cc(-c3ccc(Cl)cc3)n(-c3ccc(Cl)cc3)n2)CC1`: the CC50 in the test with HEK293 was more than 20 µM. Besides, the MIC against Pseudomonas aeruginosa [1], in the test with Cryptococcus neoformans, in the test on Staphylococcus aureus, in the test with Escherichia coli, in the test on Klebsiella pneumoniae and with Pseudomonas aeruginosa [2] was more than 20 µM in each case. Besides, the MIC in the test with Acinetobacter baumannii and against Candida albicans was more than 20 µM in each case.

Consider `CCCNc1ccc(S(=O)(=O)Nc2cc(C)on2)cc1`, for which the CC50 in the test on HEK293 was more than 20 µM. Also, the MIC against Pseudomonas aeruginosa [1], against Cryptococcus neoformans, in the test with Staphylococcus aureus, against Escherichia coli, in the test with Klebsiella pneumoniae and against Pseudomonas aeruginosa [2] was more than 20 µM in each case. In addition, the MIC against Acinetobacter baumannii and against Candida albicans was more than 20 µM each time.

In the case of `Cc1onc(-c2ccccc2)c1-c1ccc(S(N)(=O)=O)cc1` [VALDECOXIB], the CC50 in the test with HEK293 is more than 20 µM. The MIC in the test on Pseudomonas aeruginosa [1], against Cryptococcus neoformans, in the test with Staphylococcus aureus, in the test on Escherichia coli, against Klebsiella pneumoniae and with Pseudomonas aeruginosa [2] was more than 20 µM in each case. The MIC with Acinetobacter baumannii and against Candida albicans was more than 20 µM in each case.

For the compound `CC(C)Nc1nc2cc(Cl)c(Cl)cc2n1[C@H]1O[C@@H](CO)[C@H](O)[C@@H]1O` [MARIBAVIR], the CC50 in the test on HEK293 was more than 20 µM. The MIC against Pseudomonas aeruginosa [1], with Cryptococcus neoformans, in the test on Staphylococcus aureus, in the test on Escherichia coli, against Klebsiella pneumoniae and in the test with Pseudomonas aeruginosa [2] was more than 20 µM in each case. For the same compound, the MIC in the test with Acinetobacter baumannii and in the test on Candida albicans was more than 20 µM each time.

Consider `CCc1cc(CCC(=O)Nc2ccccc2O)c(O)nc1C`, for which the CC50 in the test on HEK293 is more than 20 µM. In addition, the MIC in the test with Pseudomonas aeruginosa [1], in the test on Cryptococcus neoformans, against Staphylococcus aureus, in the test with Escherichia coli, in the test with Klebsiella pneumoniae and against Pseudomonas aeruginosa [2] was more than 20 µM in each case. The MIC in the test on Acinetobacter baumannii and with Candida albicans was more than 20 µM throughout.

Regarding `CCc1nc2ccc(Cl)cn2c1C(=O)NCc1ccc(N2CCC(c3ccc(OC(F)(F)F)cc3)CC2)cc1` [TELACEBEC], the CC50 in the test with HEK293 was more than 20 µM. Moreover, the MIC in the test with Pseudomonas aeruginosa [1], in the test with Cryptococcus neoformans, against Staphylococcus aureus, against Escherichia coli, in the test on Klebsiella pneumoniae and in the test with Pseudomonas aeruginosa [2] was more than 20 µM throughout. The MIC with Acinetobacter baumannii and in the test with Candida albicans was more than 20 µM each time.

For the compound `Cc1nc(-c2ccc(C3N(C)c4ccc(F)cc4C(=O)N3c3ccccc3)s2)cs1` (stereo not drawn), the CC50 in the test with HEK293 is more than 20 µM. The MIC in the test with Pseudomonas aeruginosa [1], in the test on Cryptococcus neoformans, in the test on Staphylococcus aureus, with Escherichia coli, against Klebsiella pneumoniae and with Pseudomonas aeruginosa [2] was more than 20 µM in each case. For the same compound, the MIC against Acinetobacter baumannii and in the test on Candida albicans was more than 20 µM throughout.

With `CCN(CC)S(=O)(=O)c1ccc(Cl)c(C(=O)Nc2sc3c(c2C#N)CCCC3)c1`, the CC50 in the test on HEK293 is more than 20 µM. Further, the MIC with Pseudomonas aeruginosa [1], in the test with Cryptococcus neoformans, against Staphylococcus aureus, with Escherichia coli, against Klebsiella pneumoniae and in the test on Pseudomonas aeruginosa [2] was more than 20 µM in each case. The MIC against Acinetobacter baumannii and against Candida albicans was more than 20 µM each time.

Consider `COc1cc2c(O)c3c(c(-c4ccc5c(c4)OCO5)c2cc1OC)C(=O)OC3` [DIPHYLLIN], for which the CC50 with HEK293 was more than 20 µM. In addition, the MIC in the test with Pseudomonas aeruginosa [1], in the test on Cryptococcus neoformans, against Staphylococcus aureus, in the test with Escherichia coli, against Klebsiella pneumoniae and against Pseudomonas aeruginosa [2] was more than 20 µM in each case. For the same compound, the MIC against Acinetobacter baumannii and in the test on Candida albicans was more than 20 µM each time.
